Experimental data published in patent publication US20230158025A1 (UNIVERSITY OF UTAH RESEARCH FOUNDATION, priority 2020, published 2023).
pIC50: −log10 of the molar value. Where two headings read alike, the source gives them in different places.

Key:
[1] = aqueous kinetic solubility
[2] = PAMPA permeability
[3] = rat microsomal stability (RLM)
[4] = biological target: recombinant human GALK1 (Homo sapiens, UniProt P51570); experiment: hGALK1 biochemical activity assay (Kinase-Glo Plus, ATP depletion)
Procedure: In vitro hGALK1 activity assays were performed as previously described. Liu et al., Bioorg. Med. Chem. Lett. 25(3): 721-727 (2015), which is incorporated by reference herein for the specific teachings thereof. The biochemical assay was performed by coupling the activity of recombinant human or mouse GALK1 to the Kinase-Glo Plus luminescent ATP detection kit, using ATP depletion as a measure of GALK1 turnover. Specifically, three μL/well of ATP substrate solution (35 μM ATP) in assay buffer (20 mM HEPES pH 8.0, 5 mM MgCl2, 60 mM NaCl, 1 mM DTT, 0.01% BSA final concentration) was dispensed into 1536-well assay plates (Greiner, white solid-bottom medium-binding plates). Aliquots of compound (23 nL solubilized in DMSO) were transferred to the assay plates using a Kalypsys 1536-well pintool such that 11 concentrations with 1/3 dilutions ranging from 57.4 μM-0.97 nM are tested. One μL/well of GALK-galactose solution (5 nM GALK1, 100 μM galactose) in assay buffer was then added, yielding a final reaction volume of 4 μL/well. Following a 1-hour room temperature incubation, 4 μL of Kinase-Glo Plus detection reagent was added to provide an ATP-dependent luminescent readout (final assay volume: 8 μL/well).

[5] = biological target: recombinant mouse GALK1 (Mus musculus, UniProt Q9R0N0); experiment: mGALK1 biochemical activity assay (Kinase-Glo Plus, ATP depletion)
Procedure: In vitro hGALK1 activity assays were performed as previously described. Liu et al., Bioorg. […] The biochemical assay was performed by coupling the activity of recombinant human or mouse GALK1 to the Kinase-Glo Plus luminescent ATP detection kit, using ATP depletion as a measure of GALK1 turnover. […] One μL/well of GALK-galactose solution (5 nM GALK1, 100 μM galactose) in assay buffer was then added, yielding a final reaction volume of 4 μL/well. Following a 1-hour room temperature incubation, 4 μL of Kinase-Glo Plus detection reagent was added to provide an ATP-dependent luminescent readout (final assay volume: 8 μL/well).

[6] = recombinant human GALK1, Kinase-Glo Plus ATP depletion, read-out: hGALK
[7] = Tables 2-15, 35 μM ATP, 100 μM galactose, 1 h, bracketed figure after some values (e.g. −1.2) is undefined and not reported, read-out: hGALK IC50
[8] = recombinant mouse GALK1, Kinase-Glo Plus ATP depletion, read-out: mGALK
[9] = recombinant mouse GALK1, Kinase-Glo Plus ATP depletion, bracketed figure in the cell, e.g. (−1.2), is not defined in the text shown, read-out: mGALK
[10] = microsomal stability half-life, minutes

Sequence of recombinant human GALK1 (P51570 whole entry): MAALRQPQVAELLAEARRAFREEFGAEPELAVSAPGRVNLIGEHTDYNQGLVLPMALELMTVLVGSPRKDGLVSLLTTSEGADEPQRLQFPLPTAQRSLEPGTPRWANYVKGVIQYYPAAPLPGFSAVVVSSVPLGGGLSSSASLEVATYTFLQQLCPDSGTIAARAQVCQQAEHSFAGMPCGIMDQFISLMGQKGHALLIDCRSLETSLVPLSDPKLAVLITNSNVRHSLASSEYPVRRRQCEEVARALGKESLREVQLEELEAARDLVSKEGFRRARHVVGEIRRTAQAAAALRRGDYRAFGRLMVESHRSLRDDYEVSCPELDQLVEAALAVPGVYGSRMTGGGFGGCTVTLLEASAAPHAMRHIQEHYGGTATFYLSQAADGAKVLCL
Sequence of recombinant mouse GALK1 (Q9R0N0 whole entry): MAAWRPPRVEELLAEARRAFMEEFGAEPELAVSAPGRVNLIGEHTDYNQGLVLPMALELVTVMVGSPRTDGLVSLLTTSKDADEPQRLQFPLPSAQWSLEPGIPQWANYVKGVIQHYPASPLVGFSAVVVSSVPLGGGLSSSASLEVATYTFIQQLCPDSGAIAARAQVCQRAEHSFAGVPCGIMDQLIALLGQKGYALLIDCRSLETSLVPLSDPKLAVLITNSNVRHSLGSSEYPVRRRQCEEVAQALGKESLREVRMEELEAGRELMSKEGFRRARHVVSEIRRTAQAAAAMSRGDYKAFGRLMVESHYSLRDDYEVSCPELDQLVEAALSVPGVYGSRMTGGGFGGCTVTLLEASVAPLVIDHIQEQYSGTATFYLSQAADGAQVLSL

Row | SMILES | Sol. [1] [µg/mL] | Perm. (1 × 10^−6 cm/sec) [2] | Metab. Stabil. (m) ([3]; microsomal half-life) | pIC50 [4, 6] | pIC50 [4, 7] | pIC50 [5, 8] | Sol. ([1]; aqueous kinetic solubility) [µg/mL] | Perm. (1 × 10^−6 cm/sec) ([2]; PAMPA) | pIC50 ([5]; Tables 2-15, 35 μM ATP, 100 μM galactose, 1 h, bracketed figure after some values is undefined and not reported, read-out: mGALK IC50) | Metab. Stabil. (m) ([3]; microsomal stability half-life) | pIC50 [5, 9] | Metab. Stabil. (m) [3, 10] [m]
1 | CC1=C(C(=O)Nc2cc(C(=O)O)ccn2)C(c2ccc(-c3ccccc3)cc2Cl)N=C(Nc2nc3ccc(F)cc3o2)N1 (stereo not drawn) [Compound 65, 2-(4-(3-chloro-[1,1′-biphenyl]-4-yl)-2-((6-fluorobenzo[d]oxazol-2-yl)amino)-6-methyl-1,4-dihydropyrimidine-5-carboxamido)isonicotinic acid] | <1 | <4.9 1 × 10^−6 cm/sec | >30 | 5.46 |  |  |  |  |  |  |  | 
2 | CC1=C(C(=O)Nc2cc(C(=O)O)ccn2)C(c2ccc(C(=O)O)cc2Cl)N=C(Nc2nc3ccc(F)cc3o2)N1 (stereo not drawn) [Compound 72, 2-(4-(4-carboxy-2-chlorophenyl)-2-((6-fluorobenzo[d]oxazol-2-yl)amino)-6-methyl-1,4-dihydropyrimidine-5-carboxamido)isonicotinic acid] | >83 | <1 1 × 10^−6 cm/sec | >30 | 5.66 | 5.66 |  |  |  |  |  |  | 
3 | COC(=O)c1ccnc(NC(=O)C2=C(C)NC(Nc3nc4cccc(N)c4o3)=NC2c2ccc(C)cc2Cl)c1 (stereo not drawn) [Compound 91] | <1 | 177.1 1 × 10^−6 cm/sec | 25.2784 |  |  | 5.15 |  |  |  |  |  | 
4 | CC1=C(C(=O)Nc2nnc(-c3cccnc3)s2)C(c2ccccc2Cl)N=C(Nc2nc3cc(N)ccc3o2)N1 (stereo not drawn) [Compound 101, 2-((5-aminobenzo[d]oxazol-2-yl)amino)-4-(2-chlorophenyl)-6-methyl-N-(5-(pyridin-3-yl)-1,3,4-thiadiazol-2-yl)-1,4-dihydropyrimidine-5-carboxamide] | 1.8 | 4.4 1 × 10^−6 cm/sec | >30 | 4.96 |  |  |  |  |  |  |  | 
5 | CC1=C(C(=O)Nc2cc(C(=O)O)ccn2)C(c2ccc(C)cc2Cl)N=C(Nc2ncc(-c3ccccc3)o2)N1 (stereo not drawn) [Compound 103, 2-(4-(2-chloro-4-methylphenyl)-6-methyl-2-((5-phenyloxazol-2-yl)amino)-1,4-dihydropyrimidine-5-carboxamido)isonicotinic acid] | 42.2 | 4.14 1 × 10^−6 cm/sec | >30 | 4.61 | 4.61 |  |  |  |  |  |  | 
6 | CCn1cc(CNC(=O)C2=C(C)NC(Nc3nc4ccc(F)c(N)c4o3)=N[C@H]2c2ccc(C)cc2Cl)cn1 [Compound 135, (R)-2-((7-amino-6-fluorobenzo[d]oxazol-2-yl)amino)-4-(2-chloro-4-methylphenyl)-N-((1-ethyl-1H-pyrazol-4-yl)methyl)-6-methyl-1,4-dihydropyrimidine-5-carboxamide] |  |  |  | 7.15 |  | 6.01 | 2.05 | 407.39 1 × 10^−6 cm/sec |  |  |  | 
7 | COC(=O)c1ccc(NC(=O)C2=C(C)NC(Nc3nc4ccccc4o3)=NC2c2ccccc2Cl)cc1 (stereo not drawn) [Compound 138] |  |  |  |  |  | 5.01 | <1 | 25.4 1 × 10^−6 cm/sec | 5.01 | 17.7182 |  | 
8 | COCC1=C(C(=O)Nc2nncs2)C(c2ccccc2Cl)N=C(Nc2nc3ccccc3o2)N1 (stereo not drawn) [Compound 247] |  |  |  |  |  |  | <1 | 319.8 1 × 10^−6 cm/sec |  |  | 4.71 | >30
9 | CN(C)C(=O)C1CC(=O)C2=C(C1)NC(Nc1nc3ccccc3o1)=NC2c1ccccc1Cl (stereo not drawn) [Compound 277, 2-(benzo[d]oxazol-2-ylamino)-4-(2-chlorophenyl)-N,N-dimethyl-5-oxo-1,4,5,6,7,8-hexahydroquinazoline-7-carboxamide] |  |  |  |  |  |  | 10.84 | 219.68 1 × 10^−6 cm/sec |  |  | 5.36 | 20.79
